Test results taken from article PMC11359702, “Synthesis and Biochemical Evaluation of Ethanoanthracenes and Related Compounds: Antiproliferative and Pro-Apoptotic Effects in Chronic Lymphocytic Leukemia (CLL)” (Pharmaceuticals, 2024).
Where “and” joins values, the source holds several entries; their conditions need not be identical. Equal values may be shown once.

Tests used:
[1] = system: healthy-donor peripheral blood mononuclear cells (PBMCs); test: Annexin V/PI assay in donor PBMCs; assay type: cell-based; settings: 0.34 and 0.68 µM, 48 h
Source text: Whole blood samples from healthy donors (×5) were isolated, prepared and treated following the protocol previously described. The percentage of apoptosis observed in the treatment of isolated donor PBMCs with nitrovinylethanoanthracene 20a is concentration-dependent (Figure 11A). […] For ethanoanthracene 23a, the percentage of total apoptosis observed is illustrated in Figure 11B. […] The percentage of total apoptosis observed in the treatment of isolated donor PBMCs with the anthracene–chalcone 25n (normalized against vehicle 0.5% v/v DMSO) is illustrated in Figure 11C, and the dose-response behavior was also concentration-dependent, with compound 25n moderately toxic to healthy-donor PBMCs when treated at a 5.00 µM concentration (39%).
The human peripheral blood mononuclear cells (PBMCs) were generated as follows: peripheral blood was obtained from healthy donors (n = 2) after informed consent was received. The blood was then placed into a 50-mL falcon tube and diluted with an equal volume of phosphate-buffered saline (PBS). PBMCs were isolated using density-gradient centrifugation with LymphoPrep, as described previously. The cells were resuspended in RPMI media containing 10% FBS and 1% penicillin/streptomycin (P/S). The cells were counted using a haemocytometer and seeded into 96 well plates at a density of 1 × 10^5 cells/well (200 µL), and they were incubated at 37 °C for 1 h prior to compound treatment. The Annexin V/PI assay was used as a preliminary method of assessing the selective toxicity of the above compounds when compared with a previous alamarBlue cell viability assay in CLL cell lines. The assay was carried out as described above for the Annexin V/PI assay previously described above, and it was completed in triplicate on two independent days. Approval for this study was obtained from the School of Pharmacy and Pharmaceutical Sciences Trinity College Dublin Research Ethics Committee (2020-06-01-MS).

HG-3 cells [2] = test: LDH cytotoxicity assay (CytoTox 96); assay type: cell-based; settings: HG-3, 10 µM, 24 h, lysis solution = 100%
Source text: (§1) The lactate dehydrogenase (LDH) assay is used to assess the membrane integrity of cells as a function of the cytoplasmic LDH released. The loss of cell membrane integrity (due to cytotoxic insult) is detectable through LDH release into the cell growth medium. The assay is initiated via the reduction in cellular co-factor NAD^+ to NADH catalyzed via the LDH enzyme. Newly formed NADH catalyzes the acidic reduction in iodonitrotetrazolium chloride (INT) to the highly colored formazan (red) (mediated via the diaphorase enzyme). […] At the 10-µM treatment concentration, mild to moderate cytotoxicity (19–47%) was observed. […] Cytotoxicity remained low to mild at 1 µM (4–18%) with 23a displaying the lowest LDH release (4%).
(§2) Following the treatment of the HG-3 and PGA-1 cells at 10 µM for 24 hr, the amount of LDH released was determined using an LDH assay kit from Promega (G1780). Cell lysis solution = 100% cell lysis and LDH release). Data are presented as % cell death at a concentration of 10 µM. Cells were treated with ethanoanthracene compounds 20a, 20f, 23a and 25n (1 µM and 10 µM) for 24 h. Values are shown as the mean of three independent experiments.
(§3) The cytotoxicity of the selected compounds 20a, 20f, 23a and 25n was determined using the CytoTox 96 non-radioactive cytotoxicity assay (Promega Corporation; 2800 Woods Hollow Road, Madison, WI, USA). CLL cells HG-3 and PGA-1 were incubated for 24 h and then treated with the selected compounds 20a, 20f, 23a and 25n at 10-µM and 1-µM concentrations, following the protocol outlined above in the cell viability assay. After 24 h, the lysis solution (10×) (20 µL) was added, and the cells were incubated for a further 1 h to ensure complete cell death. Supernatant (50 µL) was removed from each well and transferred to a clean 96-well plate. “Substrate mix” (50 µL) was added, and the plate was stored in the dark at 20 °C for 30 min. “Stop solution” (50 µL) was added to each well, and the absorbance at 490 nm was recorded using a Dynatech MR5000 plate reader; the % cell death was determined relative to the control cell lysis solution.

PGA-1 cells [3] = test: LDH cytotoxicity assay (CytoTox 96); assay type: cell-based; settings: PGA-1, 10 µM, 24 h
Source text: as §1, §2, §3

PGA-1 cells [4] = test: alamarBlue cell viability assay; settings: Homo sapiens, 24 h
[5] = system: HG-3 and PGA-1 cell lines; test: alamarBlue cell viability assay, mean of both CLL cell lines; assay type: cell-based, human; settings: Homo sapiens, CLL cell; mean of HG-3 and PGA-1
HG-3 cells [6] = test: alamarBlue cell viability assay; settings: Homo sapiens, HG-3, 24 h
[7] = system: chemosensitive MUTU-1 cell line; set-up: method as in PMID 31963567; settings: chemosensitive MUTU-1 cell line ref 43; cited from earlier work
HG-3 cells [8] = test: Annexin V/PI apoptosis assay (FACS); assay type: cell-based, human
Method: (§4) The pro-apoptotic effects of selected nitrovinylethanoanthracene compounds 20a and 20f and anthracene chalcones 23a and 25n in HG-3 cells and PGA-1 cells was then investigated using FITC (fluorescein isothiocyanate), Annexin V/PI (propidium iodide) and FACS (fluorescence-activated cell sorting) analysis to characterize the mode of cellular death induced. Apoptosis was assessed as % total apoptosis (total of early (Q3) and late (Q2) apoptosis).
(§5) CLL cells PGA-1 and HG-3 (1 × 10^6 cells/mL) were treated at 37 °C with either the vehicle (1% (v/v) DMSO) or the ethanoanthracene compounds 20a, 20f, 23a and 25n (10 µM, 5 µM and 1 µM) for 48 h, following the protocol previously described. The cells were then harvested via centrifugation at 400× g in a temperature-controlled Sorvall centrifuge. The cells were rinsed with Ca^2+ Annexin-V-binding buffer (0.1 M HEPES, pH 7.4; 0.14 M NaCl; 25 mM CaCl2, 0.5 mL). The samples were resuspended in FITC Annexin V (diluted 1:33 in Ca^2+ Annexin V-binding buffer, 50 µL) and incubated for 10 min (on ice and protected from light). The samples were washed with Annexin-V-binding buffer and resuspended in a PI solution (0.5 µg/mL, 500 µL) and analyzed within 1 h using a BD Accuri C6 flow cytometer counting 10,000 cells using the FlowJo software Version 10 (FlowJo LLC, Ashland, OR, USA).

PGA-1 cells [9] = test: Annexin V/PI apoptosis assay (FACS); assay type: cell-based, human
Method: as §4, §5

[10] = system: chemoresistant DG-75 cell line; set-up: method as in PMID 31963567; settings: chemoresistant DG-75 cell line ref 43; cited from earlier work
HG-3 cells [11] = test: alamarBlue viability after pan-caspase inhibitor Z-VAD-FMK pre-treatment; assay type: cell-based, human
Source text: Caspases (cysteine-aspartic proteases) are a family of aspartic acid residue-specific regulatory cysteine proteases that play an essential role in key cellular homeostatic processes such as inflammation and programmed cell death through the induction of apoptosis. To assess whether the biological activity of both major ethanoanthracene classes (nitrostyrene and chalcone-based) is caspase-dependent, compounds 20a and 23a (representing Series 1 and Series 4, respectively) (Figure 13) were selected for evaluation at treatment concentrations of 10 µM and 1 µM across both CLL cell lines using a caspase assay protocol. In HG-3 cells, pre-treatment with pan-caspase inhibitor (CI) Z-VAD-FMK [85] […] Little difference was found between cell viability responses (with or without the caspase inhibitor) at both 10-µM and 1-µM concentrations for compound 20a.
Compounds 20a and 23a (representing Series 1 and Series 4, respectively) were selected for evaluation at two treatment concentrations, 10 µM and 1 µM, across both HG-3 and PGA-1 CLL cells. […] The output was statistically analyzed using a one-way ANOVA with a Bonferroni multiple-comparison test. […]

CLL patients = system: CLL patients; set-up: method as in PMID 23291630, PMID 31160589; settings: CLL patients ref 28,29; cited from earlier work
[12] = system: cancer cells isolated from CLL patients; settings: cancer cells isolated from CLL patients ref 39; cited from earlier work

O=C1C2C3c4ccccc4C(C=C[N+](=O)[O-])(c4ccccc43)C2C(=O)N1c1ccccc1 (stereo not drawn) [Compound 20a]
total apoptosis (toxicity) in healthy-donor PBMCs [1]: 10–35% | LDH release (cytotoxicity, % cell death) (HG-3 cells [2]): 33% | LDH release (cytotoxicity, % cell death) (PGA-1 cells [3]): 9% | IC50 (PGA-1 cells [4]; read-out: PGA-1 IC50): 610 nM | viability at 10 µM (PGA-1 cells [4]; read-out: cell viability): 11% | IC50 [5]: 550 nM | IC50 (HG-3 cells [6]; read-out: HG-3 IC50): 480 nM | viability at 10 µM (HG-3 cells [6]; read-out: cell viability, HG-3, 10 µM, 24 h, vehicle = 100%): 14 to 43% | IC50 [7]: 210 nM | total apoptosis (early Q3 + late Q2) (HG-3 cells [8]; HG-3, 1 µM): 82% | total apoptosis (early Q3 + late Q2) (HG-3 cells [8]; HG-3, 10 µM): 82–95% and 95% | total apoptosis (early Q3 + late Q2) (PGA-1 cells [9]; PGA-1, 1 µM): 83% | total apoptosis (early Q3 + late Q2) (PGA-1 cells [9]; PGA-1, 10 µM): 87–97% and 97% | IC50 [10]: 710 nM | decrease in cell viability after Z-VAD-FMK pre-treatment (HG-3 cells [11]; HG-3, 1 µM compound): 2% | decrease in cell viability after Z-VAD-FMK pre-treatment (HG-3 cells [11]; HG-3, 10 µM compound): 10%

CC1(C)CCC(CN2CCN(c3ccc(C(=O)NS(=O)(=O)c4ccc(NCC5CCOCC5)c([N+](=O)[O-])c4)c(Oc4cnc5[nH]ccc5c4)c3)CC2)=C(c2ccc(Cl)cc2)C1 [Venetoclax]
overall response (CLL patients): 80%

Nc1nc(F)nc2c1ncn2[C@@H]1O[C@H](COP(=O)(O)O)[C@@H](O)[C@@H]1O [fludarabine phosphate]
increase in apoptosis [12]: 24.6%
